Experimental data reported in patent US11911373B2, “Attention evaluation and methods for medicating” (TECHNION RESEARCH & DEVELOPMENT FOUNDATION LIMITED, priority 2018, dated 2024).

Assays:
[1] = tested on: children suffering from ADHD; assay: Startle response, eye blink probability to startle stimuli; assay type: in vivo, human; details: baseline higher than controls
Source text: (§1) Test subjects were escorted by their parents, and were asked not to take the MPH treatment in the morning of the experiment, and not to drink stimulating beverages such as coffee or energy drinks. The parents signed the consent form and provided the demographic data, following which the subject commenced the 3 steps procedure: • Baseline ASAT and EDA tests: The child was asked to sit on a stable chair in front of a computer screen, connected with EDA and EMG electrodes and requested to follow the instructions before wearing the headphones: • “You will be hearing different types of tones, some will be powerful and some will be moderate. […] When the session ends, all tones will be terminated” • Children diagnosed with ADHD were asked to take the MPH treatment and come back to the test room after 50 minutes. Controls were asked to take a break and return to the test room after 50 minutes. • Post 1-hour ASAT and EDA tests were conducted as at step 1. Auditory Sustained Attention Test (ASAT) […]
(§2) The session starts with 3 minutes of acclimatization period with 57 dB background noise level that is delivered continuously throughout the session. […] Ten “No stimulus” trials were recorded in order to evaluate baseline noise levels. […] The PPI is calculated as percent of the habituated/inhibited response as follows: 100−(max response to “pre+pulse” trial/max response to “pulse alone” trial×100).

rat = rat model, cited Avital et al. 2011, PLoS One 6, e22059; cited from earlier work
[2] = tested on: children suffering from ADHD; assay: Electro dermal activity (EDA), skin conductance; assay type: in vivo, human; details: baseline higher than controls
Source text: Test subjects were escorted by their parents, and were asked not to take the MPH treatment in the morning of the experiment, and not to drink stimulating beverages such as coffee or energy drinks. The parents signed the consent form and provided the demographic data, following which the subject commenced the 3 steps procedure: • Baseline ASAT and EDA tests: The child was asked to sit on a stable chair in front of a computer screen, connected with EDA and EMG electrodes and requested to follow the instructions before wearing the headphones: • “You will be hearing different types of tones, some will be powerful and some will be moderate. […] When the session ends, all tones will be terminated” • Children diagnosed with ADHD were asked to take the MPH treatment and come back to the test room after 50 minutes. Controls were asked to take a break and return to the test room after 50 minutes. • Post 1-hour ASAT and EDA tests were conducted as at step 1. […]
Electrodermal activity was monitored by changes in the skin conductance. […] An isolated skin conductance coupler (Mindlife) applied a constant 0.5V (DC) potential across the electrode pair and measured the conductivity at a sample rate of 10 Hz.
Scoring of the EDA signal: During the 3 minutes acclimatization period (subjected only to a 57 dB background white noise), all electro-dermal responses were counted as non-specific EDAs. […]

[3] = tested on: children suffering from ADHD; assay: Auditory Sustained Attention Test (ASAT, pre-pulse inhibition) before and 1 hour after MPH; assay type: in vivo, human; details: re-test about 1 hour after taking MPH, versus baseline
Source text: as §1, §2

COC(=O)C(c1ccccc1)C1CCCCN1 (stereo not shown) [MPH, methylphenidate]
eye blink probabilities to startle stimuli following MPH treatment [1]: do not alternate
long term hormonal effects (rat): long term hormonal alterations related to hyper-anxiety and aggression
EDAs (both specific and non-specific) following MPH treatment [2]: do not alternate
ASAT performance (impairment across all pre-pulse intensities) following MPH treatment [3]: significantly recovered
